Test results published in patent US20040259948A1, “Reciprocal regulation of inflammation and lipid metabolism by liver X receptors” (priority 2003, published 2004).

Target: T1, LXRα/RXRα (Homo sapiens, UniProt Q13133)
T1 construct: expressed in transfected cells; host or cells: RAW 264.7
T1 sequence (Q13133 1-447): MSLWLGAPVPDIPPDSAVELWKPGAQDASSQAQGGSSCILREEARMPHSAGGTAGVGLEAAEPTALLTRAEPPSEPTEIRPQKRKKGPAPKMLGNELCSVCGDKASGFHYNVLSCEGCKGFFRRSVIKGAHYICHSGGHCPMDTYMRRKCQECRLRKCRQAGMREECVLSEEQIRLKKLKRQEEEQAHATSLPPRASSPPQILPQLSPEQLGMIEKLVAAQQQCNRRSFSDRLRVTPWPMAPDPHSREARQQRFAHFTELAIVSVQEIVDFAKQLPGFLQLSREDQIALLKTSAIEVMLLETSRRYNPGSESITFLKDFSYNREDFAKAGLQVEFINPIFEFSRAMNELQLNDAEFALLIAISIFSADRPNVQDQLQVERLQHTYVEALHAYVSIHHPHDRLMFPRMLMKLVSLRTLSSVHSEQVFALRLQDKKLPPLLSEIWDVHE
T1 sequence (P19793 1-462 partner): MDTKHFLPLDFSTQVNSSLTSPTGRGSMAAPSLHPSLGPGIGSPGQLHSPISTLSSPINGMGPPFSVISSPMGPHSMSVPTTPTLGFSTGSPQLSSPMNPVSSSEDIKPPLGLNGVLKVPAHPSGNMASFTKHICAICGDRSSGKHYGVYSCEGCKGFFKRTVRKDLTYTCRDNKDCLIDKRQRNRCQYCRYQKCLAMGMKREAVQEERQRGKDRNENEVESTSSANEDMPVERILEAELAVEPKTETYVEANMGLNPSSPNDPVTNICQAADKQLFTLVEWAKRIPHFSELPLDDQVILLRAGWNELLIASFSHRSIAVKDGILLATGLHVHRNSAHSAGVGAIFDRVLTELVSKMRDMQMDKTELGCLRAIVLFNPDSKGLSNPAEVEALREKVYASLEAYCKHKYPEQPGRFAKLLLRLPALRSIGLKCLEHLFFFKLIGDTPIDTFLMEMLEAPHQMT
Experiment: Luciferase reporter transfection in RAW 264.7 cells, LXRα/RXRα
Assay type: cell-based
Settings: 2 μM
Experimental: We next investigated the mechanism by which LXR inhibits iNOS and COX-2 expression. […] RAW 264.7 cells were transfected with expression vectors for either LXRα/RXRα or LXRβ/RXRα along with luciferase reporter constructs. The LXR agonist inhibited expression of both iNOS and COX-2 gene promoters in a receptor-dependent fashion (FIG. 4 A and B). […] E, A dominant-negative IKK expression vector (IKK DN) blocks LXR-dependent repression of the COX-2 promoter. Transfected cells were treated with DMSO (ctrl), GW3965 (GW), LPS, or GW3965 and LPS. […] RAW 264.7 cells were transiently transfected with expression vectors for LXRα/RXRα, LXRβ/RXRα or dominant-negative I kappa B kinase (IKK) along with iNOS (A), COX-2 (B, E, F), NF-κB (C), AP-1 (D) or COX-2/NF-κB mutant (F) luciferase reporters. […] As activation of iNOS and COX-2 gene promoters by LPS is known to depend on interactions between AP-1 and NF-κB transcription factors, the effect of LXR on minimal promoters containing binding sites for these factors was evaluated. […] Moreover, the inhibitory effect of LXR on the COX-2 promoter was lost when NF-κB activity was blocked by transfection of a dominant-negative IKK or when binding sites for NF-κB were mutated (FIGS. 4E and F). These observations indicate that inhibition of inflammatory gene expression by LXR ligands involves antagonism of NF-κB signaling.
Reagents and plasmids. […] Oxysterols, LDL and ox-LDL were from Sigma and Intracell, respectively. LPS from Salmonella typhimurium was from Sigma. Expression plasmids for LXRα, LXRβ and IKK-DN (Castrillo, A. et al. 2001 J Biol Chem 276:15854-15860; Laffitte, B. A. et al. 2001 Mol Cell Biol 21:7558-7568), and reporter plasmids for NOS-2, (NFκB)3-LUC, (AP-1)4-LUC and COX-2 have been described (Callejas, N. A. et al. 2000 Gastroenterology 119:493-501).
Cell culture and transfections. Thioglycolate-elicited peritoneal macrophages were cultured in RPMI containing 10% fetal bovine serum (FBS). RAW 264.7 cells were cultured in DMEM containing 10% FBS. For ligand treatments, cells were in cultured medium supplemented with 5% lipoprotein-deficient serum (LPDS) and ligands for 18 h before stimulation. Bacterial infection in vitro was performed as described (Chen, L. M. et al. 1996 Mol Microbiol 21:1101-1115). Transient transfections of RAW 264.7 cells were performed in triplicate in 48-well plates using Superfect reagent (Life Technologies). After transfection, cells were incubated in medium containing 10% LPDS and the indicated ligands for 18 h before stimulation with LPS for an additional 18 h. Luciferase activity was normalized to β-galactosidase activity. NO production was determined spectrophotometrically (Castrillo, A. et al. 2000 Mol Cell Biol 20:1692-1698).

induction of the COX-2 promoter by LPS (luciferase reporter): inhibits induction
induction of the iNOS promoter by LPS (luciferase reporter): inhibits induction
luciferase reporter containing multiple NF-κB binding sites (LPS): inhibits expression
COX-2 luciferase reporter lacking the NF-κB binding site (LPS, COX-2/NF-κB mutant): fails to inhibit
inhibitory effect on the COX-2 promoter with dominant-negative IKK (LPS, IKK-DN co-transfected, LXR vector not specified): lost
Structure (SMILES): O=C(O)Cc1cccc(OCCCN(Cc2cccc(C(F)(F)F)c2Cl)CC(c2ccccc2)c2ccccc2)c1 [GW3965]
